Assay results reported in patent US8273771B2, “Ischemic disorder or disease inhibitors” (Pronas Pharma AB, priority 2007, dated 2012).

What was measured:
Format in all cases: in vivo, rat
rats with induced SAH = assay: Cortical blood flow measured with Laser Doppler; conditions: intracisternal injection
Source text: Subarachnoid hemorrhage was induced by a model originally devised by Svendgaard et al and carefully described by Prunell et al (2003). Male Sprague-Dawley rats (350-400 g) were anaesthetized using 5% halothane (Halocarbon Laboratories, River Edge, N.J.) in N2O/O2 (30:70). The rat was intubated and artificially ventilated with inhalation of 0.5-1.5% halothane in N2O/O2 (70:30) during the surgical procedure. The depth of anaesthesia was carefully monitored and the respiration checked by regularly withdrawing arterial blood samples for blood gas analysis (Radiometer, Copenhagen, Denmark). An electric temperature probe was inserted into the rectum of the rat to record the temperature, which was maintained at 37° C. An arterial catheter to measure blood pressure was placed in the tail artery and a catheter to monitor intracranial pressure (ICP) was placed in the subarachnoid space under the subocciptal membrane. At either side of the skull, 3 mm from the midline and 4 mm anteriorly from the bregma, holes were drilled through the skull bone down to dura mater (without perforation) allowing the placement of two laser-Doppler flow probes to measure cortical CBF. Finally, a 27G blunt canula with side hole was introduced 6.5 mm anterior to bregma in the midline at an angle of 30° to the vertical. […]

5-HT1B receptor mRNA = assay: Real-time PCR of receptor mRNA in cerebral arteries after SAH; conditions: MCA, BA and circle of Willis grouped; SAH rats
Protocol: (§1) To quantify mRNA for the ETA, ETB and 5-HT1B receptors, RT-PCR and real-time detection monitoring the PCR products was employed. Total cellular RNA was extracted from BA, MCA and circle of Willis using the Trizol RNA isolation kit (Invitrogen, USA) following the suppliers instructions. Briefly, the arteries were homogenized in 1 ml of Trizol (Invitrogen, Sweden) by using a TissueLyser (VWR, Sweden). Subsequently 200 μl of chloroform was added and the samples were incubated in room temperature for 3 min, followed by centrifugation at 15000 g for 15 min at 4° C. The supernatant was collected and the organic phase discarded. 200 μl of chloroform was again added to remove all traces of phenol and the samples were centrifuged at 15000 g for 15 at 4° C. The aqueous supernatant was again collected and to precipitate the RNA equal amount of isopropanol was added and the samples incubated overnight at −20° C.
(§2) Subsequently, the RNA was centrifuged at 15000 g for 20 min at 4° C. […] Total RNA was determined using a GeneQuant Pro spectrophotometer measuring absorbance at 260/280 (Amersham Pharmacia Biotech, Uppsala, Sweden).
(§3) Reverse transcription of total RNA to cDNA was carried out using the Gene Amp RNA kit (Perkin-Elmer Applied Biosystems, USA) in a Perkin-Elmer 2400 PCR machine at 42° C. for 90 min and then 72° C. for 10 min. The real-time quantitative PCR was performed with the GeneAmp SYBR Green PCR kit (PE Applied Biosystems) in a Perkin-Elmer real-time PCR machine (GeneAmp 5700 sequence detection system). […] The system automatically monitors the binding of a fluorescent dye to double-strand DNA by real-time detection of the fluorescence during each cycle of PCR amplification. […]
(§4) PCR experiments were performed on BA, MCA and circle of Willis from SAH, SAH treated with raf inhibitor or PKC inhibitor and sham operated rats. Data were analysed with the comparative cycle threshold (CT) method (28). The CT values of EF-1 mRNA were used as a reference to quantify the relative amount of ETA, ETB and 5-HT1B mRNA. […]

ETB receptor mRNA = assay: as above; conditions: MCA, BA and circle of Willis grouped; SAH rats
Protocol: as §1, §2, §3, §4

ETA receptor mRNA = assay: as above; conditions: MCA, BA and circle of Willis grouped
Protocol: as §1, §2, §3, §4

effect of injection alone on cortical blood flow measured with Laser Doppler (rats with induced SAH)	SMILES	enhanced expression of 5-HT1B receptor mRNA (5-HT1B receptor mRNA)	enhanced expression of ETB receptor mRNA (ETB receptor mRNA)	expression of ETA receptor mRNA, difference between sham, SAH and treated SAH (ETA receptor mRNA)
no effect	Cn1cc(C2=C(c3cn(CCCN)c4ccccc34)C(=O)NC2=O)c2ccccc21 [RO-31-7549]	–	–	–
–	Oc1cc(-c2nc(-c3ccccc3)[nH]c2-c2ccncc2)ccc1Cl [SB386023-b]	inhibited	inhibited	no difference
